Organism: Rattus norvegicus
Test: DrugMatrix - Regimen: Daily Repeat
Format: toxicity, organism-based, Sprague-Dawley
Design: regimen Daily Repeat, gender Male, age 6-8 weeks
Details: in vivo, po, route oral GAVAGE, […]; for ABSOLUTE BASOPHIL / ABSOLUTE EOSINOPHIL / ABSOLUTE LYMPHOCYTE / ABSOLUTE MONOCYTE / ABSOLUTE SEGMENTED NEUTROPHIL / BASOPHIL / EOSINOPHIL / ERYTHROCYTE COUNT / HEMATOCRIT / HEMOGLOBIN / LEUKOCYTE COUNT / LYMPHOCYTE / MEAN CORPUSCULAR HEMOGLOBIN / MEAN CORPUSCULAR HEMOGLOBIN CONCENTRATION / MEAN CORPUSCULAR VOLUME / MONOCYTE / NEUTROPHIL / NUCLEATED RED BLOOD CELLS / PLATELET COUNT: tissue Blood; for ALANINE AMINOTRANSFERASE / ALKALINE PHOSPHATASE / ASPARTATE AMINOTRANSFERASE / BLOOD UREA NITROGEN / CARBON DIOXIDE / CHLORIDE / CHOLESTEROL / CREATINE PHOSPHOKINASE / CREATININE / GLUCOSE / LACTATE DEHYDROGENASE / LIPASE / PHOSPHORUS / POTASSIUM / SODIUM / TOTAL BILIRUBIN / TOTAL PROTEIN / URIC ACID: tissue Plasma
[1] = 0 mg/kg, 72 h, dose level Control, time 3 day
[2] = 0 mg/kg, 120 h, dose level Control, time 5 day
[3] = 22 mg/kg, 72 h, dose level High, time 3 day

OCCN1CCN(CCCN2c3ccccc3Sc3ccc(C(F)(F)F)cc32)CC1 [FLUPHENAZINE]
ABSOLUTE BASOPHIL [1]: 0 CELLS/uL | ABSOLUTE EOSINOPHIL [1]: 0 CELLS/uL | ABSOLUTE LYMPHOCYTE [1]: 6275.67 CELLS/uL | ABSOLUTE MONOCYTE [1]: 40.67 CELLS/uL | ABSOLUTE SEGMENTED NEUTROPHIL [1]: 633.67 CELLS/uL | BASOPHIL [1]: 0% | EOSINOPHIL [1]: 0% | ERYTHROCYTE COUNT [1]: 5.2 x10E6/uL | HEMATOCRIT [1]: 32.78% | HEMOGLOBIN [1]: 12.98 G/DL | LEUKOCYTE COUNT [1]: 6.95 x10E3/uL | LYMPHOCYTE [1]: 90.17% | MEAN CORPUSCULAR HEMOGLOBIN [1]: 24.97 pg | MEAN CORPUSCULAR HEMOGLOBIN CONCENTRATION [1]: 39.62 G/DL | MEAN CORPUSCULAR VOLUME [1]: 63.03 fL | MONOCYTE [1]: 0.67% | NEUTROPHIL [1]: 9.17% | NUCLEATED RED BLOOD CELLS [1]: 0 /100WBC | PLATELET COUNT [1]: 1082.83 x10E3/uL | ALANINE AMINOTRANSFERASE [1]: 69.67 u/L | ALKALINE PHOSPHATASE [1]: 430.5 u/L | ASPARTATE AMINOTRANSFERASE [1]: 90.83 u/L | BLOOD UREA NITROGEN [1]: 13 mg/dL | CARBON DIOXIDE [1]: 33 mmol/L | CHLORIDE [1]: 99.17 MEQ/L | CHOLESTEROL [1]: 70.5 mg/dL | CREATINE PHOSPHOKINASE [1]: 253.33 u/L | CREATININE [1]: 0.13 mg/dL | GLUCOSE [1]: 157.17 mg/dL | LACTATE DEHYDROGENASE [1]: 85 u/L | LIPASE [1]: 10 u/L | PHOSPHORUS [1]: 10.2 mg/dL | POTASSIUM [1]: 5.78 MEQ/L | SODIUM [1]: 144.12 MEQ/L | TOTAL BILIRUBIN [1]: 0.2 mg/dL | TOTAL PROTEIN [1]: 5.8 G/DL | URIC ACID [1]: 0.8 mg/dL | ABSOLUTE BASOPHIL [2]: 0 CELLS/uL | ABSOLUTE EOSINOPHIL [2]: 0 CELLS/uL | ABSOLUTE LYMPHOCYTE [2]: 10431 CELLS/uL | ABSOLUTE MONOCYTE [2]: 90.5 CELLS/uL | ABSOLUTE SEGMENTED NEUTROPHIL [2]: 1111.83 CELLS/uL | BASOPHIL [2]: 0% | EOSINOPHIL [2]: 0% | ERYTHROCYTE COUNT [2]: 5.51 x10E6/uL | HEMATOCRIT [2]: 34.67% | HEMOGLOBIN [2]: 13.5 G/DL | LEUKOCYTE COUNT [2]: 11.63 x10E3/uL | LYMPHOCYTE [2]: 89.67% | MEAN CORPUSCULAR HEMOGLOBIN [2]: 24.5 pg | MEAN CORPUSCULAR HEMOGLOBIN CONCENTRATION [2]: 38.95 G/DL | MEAN CORPUSCULAR VOLUME [2]: 62.87 fL | MONOCYTE [2]: 0.67% | NEUTROPHIL [2]: 9.67% | NUCLEATED RED BLOOD CELLS [2]: 0 /100WBC | PLATELET COUNT [2]: 1052.67 x10E3/uL | ALANINE AMINOTRANSFERASE [2]: 54.67 u/L | ALKALINE PHOSPHATASE [2]: 359.83 u/L | ASPARTATE AMINOTRANSFERASE [2]: 83 u/L | BLOOD UREA NITROGEN [2]: 13.5 mg/dL | CARBON DIOXIDE [2]: 27.17 mmol/L | CHLORIDE [2]: 98.5 MEQ/L | CHOLESTEROL [2]: 66.83 mg/dL | CREATINE PHOSPHOKINASE [2]: 256.17 u/L | CREATININE [2]: 0.19 mg/dL | GLUCOSE [2]: 171.33 mg/dL | LACTATE DEHYDROGENASE [2]: 91.5 u/L | LIPASE [2]: 10.5 u/L | PHOSPHORUS [2]: 8.72 mg/dL | POTASSIUM [2]: 5.34 MEQ/L | SODIUM [2]: 142.53 MEQ/L | TOTAL BILIRUBIN [2]: 0.2 mg/dL | TOTAL PROTEIN [2]: 6.05 G/DL | URIC ACID [2]: 0.6 mg/dL | ABSOLUTE BASOPHIL [3]: 0 CELLS/uL | ABSOLUTE EOSINOPHIL [3]: 0 CELLS/uL | ABSOLUTE LYMPHOCYTE [3]: 7819 CELLS/uL | ABSOLUTE MONOCYTE [3]: 96.67 CELLS/uL | ABSOLUTE SEGMENTED NEUTROPHIL [3]: 384.33 CELLS/uL | BASOPHIL [3]: 0% | EOSINOPHIL [3]: 0% | ERYTHROCYTE COUNT [3]: 6.13 x10E6/uL | HEMATOCRIT [3]: 39.3% | HEMOGLOBIN [3]: 15.37 G/DL | LEUKOCYTE COUNT [3]: 8.3 x10E3/uL | LYMPHOCYTE [3]: 94.67% | MEAN CORPUSCULAR HEMOGLOBIN [3]: 25.03 pg | MEAN CORPUSCULAR HEMOGLOBIN CONCENTRATION [3]: 39.07 G/DL | MEAN CORPUSCULAR VOLUME [3]: 64.13 fL | MONOCYTE [3]: 1% | NEUTROPHIL [3]: 4.33% | NUCLEATED RED BLOOD CELLS [3]: 0 /100WBC | PLATELET COUNT [3]: 1324.33 x10E3/uL | ALANINE AMINOTRANSFERASE [3]: 35.33 u/L | ALKALINE PHOSPHATASE [3]: 274 u/L | ASPARTATE AMINOTRANSFERASE [3]: 77 u/L | BLOOD UREA NITROGEN [3]: 16.33 mg/dL | CARBON DIOXIDE [3]: 34 mmol/L | CHLORIDE [3]: 108.33 MEQ/L | CHOLESTEROL [3]: 92.67 mg/dL | CREATINE PHOSPHOKINASE [3]: 280 u/L | CREATININE [3]: 0.13 mg/dL | GLUCOSE [3]: 154 mg/dL | LACTATE DEHYDROGENASE [3]: 79.33 u/L | LIPASE [3]: 9.67 u/L | PHOSPHORUS [3]: 9.4 mg/dL | POTASSIUM [3]: 5.57 MEQ/L | SODIUM [3]: 156.07 MEQ/L | TOTAL BILIRUBIN [3]: 0.17 mg/dL | TOTAL PROTEIN [3]: 6.13 G/DL | URIC ACID [3]: 0.53 mg/dL

From ChEMBL document CHEMBL3885881, “DrugMatrix”
